In US12371454B2, “Cyclic peptide compound having Kras inhibitory action” (priority 2019, dated 2025):
pIC50: −log10 of the molar value. Starred links: 1 amine or outer side, 2 acyl side, 3 side chain; linkers in the order of their positions; H or OH if unused. Positions of bridges follow the written chain, without caps; N, C: chain ends. Non-standard residues stand in square brackets, D forms with d. Residues, ends and D or L forms follow the SMILES beside them. *: point of attachment. NMeAbu(3,3-F2-piperidino) = CN[C@@H](CCN1CCCC(F)(F)C1)C(=O)O; hPhe(3-Cl-4-CF3) = N[C@@H](CCc1ccc(C(F)(F)F)c(Cl)c1)C(=O)O; hPhe(3-F,4-CF3) = N[C@@H](CCc1ccc(C(F)(F)F)c(F)c1)C(=O)O; hPhe(4-CF3) = N[C@@H](CCc1ccc(C(F)(F)F)cc1)C(=O)O; Piperazinyl(4-(3-oxetanyl)) = C1OCC1N1CCN(*)CC1; 3Oxa8azabicyclo(3.2.1)octane = C1CC2COCC1N2*; NMedβ3hAla = C[C@H](CC(=O)[*:2])N(C)[*:1]; NMeAla(cPent) = CN[C@@H](CC1CCCC1)C(=O)O; Morpholine(3S-CO) = O=C(O)[C@@H]1COCCN1; NMeGly(cPent) = CN[C@H](C(=O)O)C1CCCC1; dαMeGly(allyl) = C=CC[C@@](C)(N)C(=O)O; NMeAla(cPr) = CN[C@@H](CC1CC1)C(=O)O; NMe3Pal = CN[C@@H](Cc1cccnc1)C(=O)O; NMeCha = CN[C@@H](CC1CCCCC1)C(=O)O; NMeChg = CN[C@H](C(=O)O)C1CCCCC1; NMeI = CC[C@H](C)[C@H](NC)C(=O)O; NMeD = CN[C@@H](CC(=O)O)C(=O)O; NMeL = CN[C@@H](CC(C)C)C(=O)O; NMeV = CN[C@H](C(=O)O)C(C)C; d(β3hA) = C[C@@H](N)CC(=O)O; Iva = CC[C@](C)(N)C(=O)O; Morpholide = C1CN(*)CCO1; NMeA = CN[C@@H](C)C(=O)O; Piperidide = C1CCN(*)CC1; Pyrrolidide = C1CCN(*)C1; Ac5c = NC1(C(=O)O)CCCC1; Aze = O=C(O)[C@@H]1CCN1; Ac4c = NC1(C(=O)O)CCC1; Sar = CNCC(=O)O

Key:
[1] = system: Human pancreatic cancer cell line AsPC-1; assay: Measurement of AsPC-1 cell growth inhibition (AsPC-1 CGI); format: cell-based; settings: 96 h
Procedure, shortened: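 AsPC-1 cells in 15% FBS RPMI-1640 were exposed to test compound for 96 hours at 37° C, with CellTiter-Glo as endpoint.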

[2] = target: T1, Kras and SOS1 (biotin-tagged human Kras loaded with GDP, His-tagged human SOS1) (Homo sapiens, UniProt P01116, G12D); assay: Protein-protein interaction inhibition between Kras and SOS1 (KrasGl2D-SOS PPI) using AlphaScreen; format: binding; settings: AlphaScreen; biotin-tagged human Kras loaded with GDP, His-tagged human SOS1; read-out: KRAS G12D-SOS PPI IC50
T1 construct: made in house; host or cells: E. coli (stated for Kras only)
Procedure, shortened: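 Binding between SOS1 and Kras is detected as bead-proximity luminescence: illuminate Ni-conjugated donors (680 nm), collect 520-620 nm emission from streptavidin-conjugated acceptors; Kras carries biotin and GDP loaded after purification, SOS1 carries a His tag.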

T1 sequence (P01116 1-188 isoform P01116-2 G12D): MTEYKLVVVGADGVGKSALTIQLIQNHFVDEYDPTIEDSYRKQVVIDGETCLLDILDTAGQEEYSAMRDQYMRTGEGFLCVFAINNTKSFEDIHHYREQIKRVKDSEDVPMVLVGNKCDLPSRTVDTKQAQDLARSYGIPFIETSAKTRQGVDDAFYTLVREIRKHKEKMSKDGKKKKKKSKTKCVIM

SMILES | pIC50 [1] | pIC50 [2]
CC[C@H](C)[C@@H]1NC(=O)[C@H](CC(C)C)N(C)C(=O)C[C@@H](C(=O)N(C)C)N(C)C(=O)[C@H](C2CCCC2)N(C)C(=O)C2(CCCC2)NC(=O)[C@H](CCN2CCCC(F)(F)C2)N(C)C(=O)[C@H](CCc2ccc(C(F)(F)F)c(Cl)c2)NC(=O)CN(C)C(=O)[C@H](CC2CCCCC2)N(C)C(=O)[C@@H]2CCN2C(=O)[C@H](C)N(C)C1=O [Compound 910] ([NMeL]I[NMeA][Aze][NMeCha][Sar][hPhe(3-Cl-4-CF3)][NMeAbu(3,3-F2-piperidino)][Ac5c][NMeGly(cPent)][NMeD]-NMe2; lactam N-11) | 6.30 to 7.00 | 8.37
CC[C@H](C)[C@@H]1NC(=O)[C@H](CC(C)C)N(C)C(=O)C[C@@H](C)N(C)C(=O)[C@H](C(C)C)N(C)C(=O)[C@](C)(CC)NC(=O)[C@@H]2CCCN2C(=O)[C@H](CCc2ccc(C(F)(F)F)c(Cl)c2)NC(=O)CN(C)C(=O)[C@H](CC2CCCCC2)N(C)C(=O)CN(C)C(=O)CN(C)C1=O [Compound 944] (cyclo(I[Sar][Sar][NMeCha][Sar][hPhe(3-Cl-4-CF3)]P[Iva][NMeV][NMedβ3hAla][NMeL])) | 6.30 to 7.00 | 7.74
CC[C@H](C)[C@@H]1NC(=O)[C@H](CC(C)C)N(C)C(=O)C[C@@H](C(=O)N2CCOCC2)N(C)C(=O)[C@H](C2CCCCC2)N(C)C(=O)C2(CCCC2)NC(=O)[C@@H]2CCCN2C(=O)[C@H](CCc2ccc(C(F)(F)F)cc2)NC(=O)CN(C)C(=O)[C@H](CC2CCCCC2)N(C)C(=O)CN(C)C(=O)CN(C)C1=O [Compound 1947] ([NMeL]I[Sar][Sar][NMeCha][Sar][hPhe(4-CF3)]P[Ac5c][NMeChg][NMeD]-Morpholide; lactam N-11) | 7.00 to 7.30 | 8.92
C=CC[C@@]1(C)NC(=O)[C@@H]2CCCN2C(=O)[C@H](CCc2ccc(C(F)(F)F)c(Cl)c2)NC(=O)CN(C)C(=O)[C@H](CC2CCCCC2)N(C)C(=O)CN(C)C(=O)CN(C)C(=O)[C@H]([C@@H](C)CC)NC(=O)[C@H](CC(C)C)N(C)C(=O)C[C@@H](C(=O)N2CCCCC2)N(C)C(=O)[C@H](C(C)C)N(C)C1=O [Compound 287] ([NMeL]I[Sar][Sar][NMeCha][Sar][hPhe(3-Cl-4-CF3)]P[dαMeGly(allyl)][NMeV][NMeD]-Piperidide; lactam N-11) | 6.30 to 7.00 | 8.29
CC[C@H](C)[C@@H]1NC(=O)[C@H](CC(C)C)N(C)C(=O)C[C@@H](C(=O)N2CCN(C3COC3)CC2)N(C)C(=O)[C@H](C(C)C)N(C)C(=O)C2(CCCC2)NC(=O)[C@@H]2CCCN2C(=O)[C@H](CCc2ccc(C(F)(F)F)c(Cl)c2)NC(=O)CN(C)C(=O)[C@H](CC2CCCCC2)N(C)C(=O)[C@@H]2CCN2C(=O)[C@H](C)N(C)C1=O [Compound 1181] ([NMeL]I[NMeA][Aze][NMeCha][Sar][hPhe(3-Cl-4-CF3)]P[Ac5c][NMeV][NMeD]-{Piperazinyl(4-(3-oxetanyl))}; lactam N-11) | 6.30 to 7.00 | 8.22
CC[C@H](C)[C@@H]1NC(=O)[C@H](CC(C)C)N(C)C(=O)C[C@@H](C(=O)N2CCCCC2)N(C)C(=O)[C@H](C(C)C)N(C)C(=O)C2(CCCC2)NC(=O)[C@@H]2CCCN2C(=O)[C@H](CCc2ccc(C(F)(F)F)c(Cl)c2)NC(=O)CN(C)C(=O)[C@H](CC2CCCC2)N(C)C(=O)[C@@H]2CCN2C(=O)[C@H](C)N(C)C1=O [Compound 1739] ([NMeL]I[NMeA][Aze][NMeAla(cPent)][Sar][hPhe(3-Cl-4-CF3)]P[Ac5c][NMeV][NMeD]-Piperidide; lactam N-11) | 6.30 to 7.00 | 8.33
CC[C@H](C)[C@@H]1NC(=O)[C@H](CC(C)C)N(C)C(=O)C[C@@H](C(=O)N(C)C)N(C)C(=O)[C@H](C2CCCC2)N(C)C(=O)C2(CCCC2)NC(=O)[C@H](Cc2cccnc2)N(C)C(=O)[C@H](CCc2ccc(C(F)(F)F)c(Cl)c2)NC(=O)CN(C)C(=O)[C@H](CC2CCCCC2)N(C)C(=O)[C@@H]2CCN2C(=O)[C@H](C)N(C)C1=O [Compound 1071] ([NMeL]I[NMeA][Aze][NMeCha][Sar][hPhe(3-Cl-4-CF3)][NMe3Pal][Ac5c][NMeGly(cPent)][NMeD]-NMe2; lactam N-11) | 6.30 to 7.00 | 8.89
CC[C@H](C)[C@@H]1NC(=O)[C@H](CC(C)C)N(C)C(=O)C[C@@H](C(=O)N(C)C)N(C)C(=O)[C@H](C2CCCC2)N(C)C(=O)C2(CCCC2)NC(=O)[C@H](C)NC(=O)[C@H](CCc2ccc(C(F)(F)F)c(Cl)c2)NC(=O)CN(C)C(=O)[C@H](CC2CCCCC2)N(C)C(=O)[C@@H]2CCN2C(=O)[C@H](C)N(C)C1=O [Compound 575] ([NMeL]I[NMeA][Aze][NMeCha][Sar][hPhe(3-Cl-4-CF3)]A[Ac5c][NMeGly(cPent)][NMeD]-NMe2; lactam N-11) | 6.30 to 7.00 | 9.25
CC[C@H](C)[C@@H]1NC(=O)[C@H](CC(C)C)N(C)C(=O)C[C@@H](C(=O)N2CCCC2)N(C)C(=O)[C@H](C2CCCCC2)N(C)C(=O)C2(CCCC2)NC(=O)[C@@H]2CCCN2C(=O)[C@H](CCc2ccc(C(F)(F)F)c(F)c2)NC(=O)CN(C)C(=O)[C@H](CC2CCCCC2)N(C)C(=O)CN(C)C(=O)CN(C)C1=O [Compound 1870] ([NMeL]I[Sar][Sar][NMeCha][Sar][hPhe(3-F,4-CF3)]P[Ac5c][NMeChg][NMeD]-Pyrrolidide; lactam N-11) | 7.30 to 7.70 | 9.13
CC[C@H](C)[C@@H]1NC(=O)[C@H](CC(C)C)N(C)C(=O)C[C@@H](C(=O)N2CCCCC2)N(C)C(=O)[C@H](CC2CC2)N(C)C(=O)C2(CCCC2)NC(=O)[C@@H]2CCCN2C(=O)[C@H](CCc2ccc(C(F)(F)F)c(Cl)c2)NC(=O)CN(C)C(=O)[C@H](CC2CCCCC2)N(C)C(=O)CN(C)C(=O)CN(C)C1=O [Compound 787] ([NMeL]I[Sar][Sar][NMeCha][Sar][hPhe(3-Cl-4-CF3)]P[Ac5c][NMeAla(cPr)][NMeD]-Piperidide; lactam N-11) | 6.30 to 7.00 | 8.54
CC[C@H](C)[C@@H]1NC(=O)[C@H](CC(C)C)N(C)C(=O)C[C@@H](C(=O)N2C3CCC2COC3)N(C)C(=O)[C@H](C(C)C)N(C)C(=O)C2(CCCC2)NC(=O)[C@@H]2CCCN2C(=O)[C@H](CCc2ccc(C(F)(F)F)c(Cl)c2)NC(=O)CN(C)C(=O)[C@H](CC2CCCCC2)N(C)C(=O)[C@@H]2CCN2C(=O)[C@H](C)N(C)C1=O [Compound 1235] ([NMeL]I[NMeA][Aze][NMeCha][Sar][hPhe(3-Cl-4-CF3)]P[Ac5c][NMeV][NMeD]-{3Oxa8azabicyclo(3.2.1)octane}; lactam N-11) | 6.30 to 7.00 | 8.26
CC[C@H](C)[C@@H]1NC(=O)[C@H](C)N(C)C(=O)C[C@@H](C(=O)N2CCCCC2)N(C)C(=O)[C@H](C2CCCCC2)N(C)C(=O)C2(CCCC2)NC(=O)[C@@H]2CCCN2C(=O)[C@H](CCc2ccc(C(F)(F)F)cc2)NC(=O)CN(C)C(=O)[C@H](CC2CCCCC2)N(C)C(=O)CN(C)C(=O)CN(C)C1=O [Compound 72] ([NMeA]I[Sar][Sar][NMeCha][Sar][hPhe(4-CF3)]P[Ac5c][NMeChg][NMeD]-Piperidide; lactam N-11) | 6.30 to 7.00 | 9.33
CC[C@H](C)[C@@H]1NC(=O)[C@H](CC(C)C)N(C)C(=O)C[C@@H](C(=O)N2C3CCC2COC3)N(C)C(=O)[C@H](C2CCCCC2)N(C)C(=O)C2(CCC2)NC(=O)[C@@H]2CCCN2C(=O)[C@H](CCc2ccc(C(F)(F)F)c(Cl)c2)NC(=O)CN(C)C(=O)[C@H](CC2CCCCC2)N(C)C(=O)CN(C)C(=O)CN(C)C1=O [Compound 1936] ([NMeL]I[Sar][Sar][NMeCha][Sar][hPhe(3-Cl-4-CF3)]P[Ac4c][NMeChg][NMeD]-{3Oxa8azabicyclo(3.2.1)octane}; lactam N-11) | 7.30 to 7.70 | 9.17
CC[C@H](C)[C@@H]1NC(=O)[C@H](C)N(C)C(=O)C[C@@H](C)N(C)C(=O)[C@H](C(C)C)N(C)C(=O)C2(CCCC2)NC(=O)[C@@H]2CCCN2C(=O)[C@H](CCc2ccc(C(F)(F)F)c(Cl)c2)NC(=O)CN(C)C(=O)[C@H](CC2CCCCC2)N(C)C(=O)CN(C)C(=O)CN(C)C1=O [Compound 714] (cyclo([Ac5c][NMeV][NMedβ3hAla][NMeA]I[Sar][Sar][NMeCha][Sar][hPhe(3-Cl-4-CF3)]P)) | 6.30 to 7.00 | 8.64
CC[C@H](C)[C@@H]1NC(=O)[C@H](CC(C)C)N(C)C(=O)C[C@@H](C(=O)N2CCCCC2)N(C)C(=O)[C@H](C2CCCCC2)N(C)C(=O)C2(CCCC2)NC(=O)[C@@H]2COCCN2C(=O)[C@H](CCc2ccc(C(F)(F)F)c(Cl)c2)NC(=O)CN(C)C(=O)[C@H](CC2CCCCC2)N(C)C(=O)CN(C)C(=O)CN(C)C1=O [Compound 662] ([NMeL]I[Sar][Sar][NMeCha][Sar][hPhe(3-Cl-4-CF3)][Morpholine(3S-CO)][Ac5c][NMeChg][NMeD]-Piperidide; lactam N-11) | 7.00 to 7.30 | 8.49
CC[C@H](C)[C@@H]1NC(=O)[C@H](CC(C)C)N(C)C(=O)C[C@@H](C)NC(=O)[C@H]([C@@H](C)CC)N(C)C(=O)C2(CCCC2)NC(=O)[C@@H]2CCCN2C(=O)[C@H](CCc2ccc(C(F)(F)F)c(Cl)c2)NC(=O)CN(C)C(=O)[C@H](CC2CCCCC2)N(C)C(=O)CN(C)C(=O)CN(C)C1=O [Compound 708] (cyclo([Ac5c][NMeI][d(β3hA)][NMeL]I[Sar][Sar][NMeCha][Sar][hPhe(3-Cl-4-CF3)]P)) | 7.00 to 7.30 | 7.96
